Results: ChEMBL document CHEMBL6177955, “Design, synthesis and biological evaluation of Golgi-targeting anion transporters as inducers of Golgiphagy and apoptosis in cancer cells” (Eur J Med Chem, 2025)
The source made the active and inactive calls. The calls are words filed in the database; no cut-off is given here.

Assays:
Lipid bilayer [1] = assay: Vesicular anionophoric activity in large unilamellar vesicle membrane derived from egg-yolk L-alpha-phosphatidylcholine assessed as induction of relative efflux of chloride ions in presence of sodium (Na+) measured up to 300 seconds by using chloride-selective electrode; conditions: time <= 300.0 sec
Lipid bilayer [2] = assay: Vesicular anionophoric activity in large unilamellar vesicle membrane derived from egg-yolk L-alpha-phosphatidylcholine assessed as induction of relative efflux of chloride ions in presence of potassium (K+) measured up to 300 seconds by using chloride-selective electrode; conditions: time <= 300.0 sec
Lipid bilayer [3] = assay: Vesicular anionophoric activity in large unilamellar vesicle membrane derived from egg-yolk L-alpha-phosphatidylcholine assessed as induction of relative efflux of chloride ions in presence of rubidium (Rb+) measured up to 300 seconds by using chloride-selective electrode; conditions: time <= 300.0 sec
Lipid bilayer [4] = assay: Vesicular anionophoric activity in large unilamellar vesicle membrane derived from egg-yolk L-alpha-phosphatidylcholine assessed as induction of relative efflux of chloride ions in presence of cesium (Cs+) measured up to 300 seconds by using chloride-selective electrode; conditions: time <= 300.0 sec
Lipid bilayer [5] = assay: Vesicular anionophoric activity in Bulky nitrobenzene membrane assessed as induction of relative efflux of chloride ions measured up to 100 hrs by using chloride-selective electrode
MCF7 = assay: Antiproliferative activity against human MCF7 cells by MTT assay; format: functional, cell-based
HT-29 = assay: Antiproliferative activity against human HT-29 cells by MTT assay; format: functional, cell-based
HCT-8 = assay: Antiproliferative activity against human HCT-8 cells by MTT assay; format: functional, cell-based
HepG2 [6] = assay: Induction of chloride ion influx in human HepG2 cells assessed as effect on lysosomal chloride anions at 5 to 20 uM measured after 12 hrs incubation by chloride-sensitive dye MQAE-MP based CLSM imaging analysis; format: functional, cell-based; conditions: dose 5-20 µM
HepG2 [7] = assay: Suppression of Golgi structural and functional protein expression in human HepG2 cells assessed as decrease in GM130 protein expression at 5 to 20 uM measured after 48 hrs incubation by Western blot analysis; format: cell-based; conditions: dose 5-20 µM
HepG2 [8] = assay: Suppression of Golgi structural and functional protein expression in human HepG2 cells assessed as decrease in GRASP55 protein expression at 5 to 20 uM measured after 48 hrs incubation by Western blot analysis; format: cell-based; conditions: dose 5-20 µM
HepG2 [9] = assay: Effect on dysregulation mediated autophagy in human HepG2 cells assessed as increase in p62 marker expression at 5 to 20 uM measured after 48 hrs incubation by Western blot analysis; format: functional, cell-based; conditions: dose 5-20 µM
HepG2 [10] = assay: Effect on dysregulation mediated autophagy in human HepG2 cells assessed as increase in LC3B marker expression at 5 to 20 uM measured after 48 hrs incubation by Western blot analysis; format: functional, cell-based; conditions: dose 5-20 µM
HepG2 [11] = assay: Induction of autophagosome formation in human HepG2 cells assessed as green fluorescence in mitochondria by measuring pearson co-localization at 10 uM measured after 12 hrs incubation by mCherry-LC3B assay; format: functional
HepG2 [12] = assay: Induction of apoptosis in human HepG2 cells assessed as viable cells at 5 uM measured after 24 hrs incubation by Propidium iodide/Annexin V-FITC analysis (reference value: 90.2%); format: functional; conditions: read-out: Activity
HepG2 [13] = assay: Induction of apoptosis in human HepG2 cells assessed as early apoptotic cells at 5 uM measured after 24 hrs incubation by Propidium iodide/Annexin V-FITC analysis (reference value: 2.90%); format: functional
HepG2 [14] = assay: Induction of apoptosis in human HepG2 cells assessed as necrotic cells at 5 uM measured after 24 hrs incubation by Propidium iodide/Annexin V-FITC analysis (reference value: 1.14%); format: functional
HepG2 [15] = assay: Induction of apoptosis in human HepG2 cells assessed as early apoptotic cells at 10 uM measured after 24 hrs incubation by Propidium iodide/Annexin V-FITC analysis (reference value: 2.90%); format: functional
HepG2 [16] = assay: Induction of apoptosis in human HepG2 cells assessed as viable cells at 20 uM measured after 24 hrs incubation by Propidium iodide/Annexin V-FITC analysis (reference value: 90.2%); format: functional; conditions: read-out: Activity
HepG2 [17] = assay: Induction of apoptosis in human HepG2 cells assessed as necrotic cells at 20 uM measured after 24 hrs incubation by Propidium iodide/Annexin V-FITC analysis (reference value: 1.14%); format: functional
HepG2 [18] = assay: Induction of apoptosis in human HepG2 cells assessed as reduction in Golgi-associated apoptotic proteins (GAAPs) expression measured after 24 hrs by Western blot analysis; format: functional, cell-based
HepG2 [19] = assay: Cell cycle arrest in human HepG2 cells assessed as accumulation of cells at G2/M phase at 5 uM measured after 24 hrs incubation by flow cytometric analysis; format: functional
HepG2 [20] = assay: Cell cycle arrest in human HepG2 cells assessed as accumulation of cells at G2/M phase at 20 uM measured after 24 hrs incubation by flow cytometric analysis; format: functional
HepG2 [21] = assay: Antitumor activity against human HepG2 cells xenografted mouse model assessed as reduction in tumor weight at 5 to 10 mg/kg, ip administered once every 2 days for 21 days; format: functional, organism-based; conditions: dose 5-10 mg/kg, time 21.0 day
HepG2 [22] = assay: Antitumor activity against human HepG2 cells xenografted mouse model assessed as reduction in tumor growth inhibition at 5 mg/kg, ip administered once every 2 days for 21 days relative to control; format: functional; conditions: HepG2, 504 h, time 21 day, read-out: TGI
HepG2 [23] = assay: Antitumor activity against human HepG2 cells xenografted mouse model assessed as reduction in tumor growth inhibition at 10 mg/kg, ip administered once every 2 days for 21 days relative to control; format: functional; conditions: HepG2, 504 h, time 21 day, read-out: TGI
HepG2 [24] = assay: Antitumor activity against human HepG2 cells xenografted mouse model assessed as reduction in tumor growth inhibition at 1 mg/kg, ip administered once every 2 days for 21 days relative to control; format: functional; conditions: HepG2, 504 h, time 21 day, read-out: TGI
[25] = Toxicity in mouse xenografted with human HepG2 cells assessed as body weight change at 5 to 10 mg/kg, ip administered once every 2 days for 21 days; format: organism-based; conditions: in vivo, 504 h, dose 5-10 mg/kg, time 21 day
[26] = Toxicity in mouse xenografted with human HepG2 cells assessed as histopathological changes in liver at 5 to 10 mg/kg, ip administered once every 2 days for 21 days by H and E staining based analysis; format: organism-based; conditions: in vivo, 504 h, dose 5-10 mg/kg, time 21 day
HepG2 [27] = assay: Antitumor activity against human HepG2 cells xenografted mouse model assessed as reduction GM130 expression in tumor tissue at 5 to 10 mg/kg, ip administered once every 2 days for 21 days; format: functional, organism-based; conditions: dose 5-10 mg/kg, time 21.0 day
[28] = Toxicity in mouse xenografted with human HepG2 cells assessed as histopathological changes in lung at 5 to 10 mg/kg, ip administered once every 2 days for 21 days by H and E staining based analysis; format: organism-based; conditions: in vivo, 504 h, dose 5-10 mg/kg, time 21 day
[29] = Toxicity in mouse xenografted with human HepG2 cells assessed as histopathological changes in kidney at 5 to 10 mg/kg, ip administered once every 2 days for 21 days by H and E staining based analysis; format: organism-based; conditions: in vivo, 504 h, dose 5-10 mg/kg, time 21 day
[30] = Toxicity in mouse xenografted with human HepG2 cells assessed as aspartate aminotransferase (AST) at 5 to 10 mg/kg, ip administered once every 2 days for 21 days; format: organism-based; conditions: in vivo, 504 h, dose 5-10 mg/kg, time 21 day
[31] = Toxicity in mouse xenografted with human HepG2 cells assessed as blood urea nitrogen (BUN) at 5 to 10 mg/kg, ip administered once every 2 days for 21 days; format: organism-based; conditions: in vivo, 504 h, dose 5-10 mg/kg, time 21 day
[32] = Toxicity in mouse xenografted with human HepG2 cells assessed as creatine kinase (CK) at 5 to 10 mg/kg, ip administered once every 2 days for 21 days; format: organism-based; conditions: in vivo, 504 h, dose 5-10 mg/kg, time 21 day

Activity (Lipid bilayer [1]): Active
Activity (Lipid bilayer [2]): Active
Activity (Lipid bilayer [3]): Active
Activity (Lipid bilayer [4]): Active
IC50 (MCF7): 12.7 µM
IC50 (HT-29): > 50 µM
IC50 (HCT-8): > 50 µM
SMILES: NS(=O)(=O)c1ccc(NC(=O)CCCCCNc2c(Nc3cc(C(F)(F)F)cc(C(F)(F)F)c3)c(=O)c2=O)cc1
Activity (Lipid bilayer [5]): Active; Compound Exhibit Anion Transport Activity Most Probably Through Carrier Mechanism
Activity (HepG2 [6]): inactive
Activity (HepG2 [7]): Active
Activity (HepG2 [8]): Active
Activity (HepG2 [9]): Active
Activity (HepG2 [10]): Active
Activity (HepG2 [11]): 0.23
viability at 5 µM (HepG2 [12]): 73.5%
Activity (HepG2 [13]): 12%
Activity (HepG2 [14]): 1.64%
Activity (HepG2 [15]): 20.2%
viability at 20 µM (HepG2 [16]): 22.1%
Activity (HepG2 [17]): 7.19%
Activity (HepG2 [18]): Dose-dependent-effect
Activity (HepG2 [19]): 6.95%
Activity (HepG2 [20]): 44.07%
Activity (HepG2 [21]): Active
inhibition in vivo at 5 mg/kg (HepG2 [22]): 62%
inhibition in vivo at 10 mg/kg (HepG2 [23]): 77%
inhibition in vivo at 1 mg/kg (HepG2 [24]): 41%
Activity [25]: Non-toxic
Activity [26]: Non-toxic
Activity (HepG2 [27]): Active
Activity [28]: Non-toxic
Activity [29]: Non-toxic
Activity [30]: Non-toxic
Activity [31]: Non-toxic
Activity [32]: Non-toxic
